The values below come from patent US7205281B2, “Process for the synchronization of ovulation for timed breeding without heat detection” (priority 2003, dated 2007).

Where only a bound is given, the exact number is not on record here.

What all share (assay type): in vivo, swine
Test [1] concerns ovariectomized estrogen primed gilt. As to the kind of experiment: Dose response study of LH release in ovariectomized estrogen primed gilt model (RIA). As to conditions: single injection of 50 mcg in SAIB. As for the experimental part:
A dose response study was performed using deslorelin in SAIB in an ovariectomized estrogen primed gilt model (Barb, et al. (1999) Proceed. Int'l. Symp. Control. Rel. Bioact. Mater., 26).

Another test deals with mature postpartum sows. The test can be described thus: Deslorelin injected intravulvar at estrus detection with AI breeding in mature postpartum sows (Example 2). How it is done:
Sows were assigned randomly in blocks of two to either control or to be injected intravulvar with 50 mcg of deslorelin in SAIB at the time of estrus detection for sows first detected in estrus in the a.m. and 12 hours later for those first detected in estrus in the p.m. Treated animals were bred AI upon detected estrus and again 24 hours later if still in estrus. Controls received a saline injection on first detected estrus behavior estrus detection and were bred according to the farm's normal procedures.

The subject of test [2] is postpartum sows. The test can be described thus: Pregnancy rate after deslorelin treatment in sows, summary of Tables 2 to 5. As to conditions: Table 6. As for the experimental part:
Approximately 170 postpartum sows were randomly divided into two equal groups comprised of controls and treated. Following weaning, the controls were detected for estrus and bred following the normal standard operating procedures for the farms on which they resided. The treated sows received a 50 mcg dose of deslorelin in SAIB at 96 hours post-weaning and were bred with a single insemination 28+/−2 hours later with no regard to estrus detection. The sows were examined for pregnancy by ultrasound at 21 days and slaughtered around 28 days post breeding. The entire reproductive tract was removed and corpora lutea and embryos were counted. Postpartum sows were randomly distributed into three different groups comprised of Controls, Treatment 1, and Treatment 2, with the exception of Site 3, which was divided into two groups, Control and Treatment 2. Control sows were detected for estrus following weaning, and bred following the normal standard operating procedures for the farms on which they resided. Treatment 1 sows were detected for estrus following weaning, and received a 50 mcg dose of deslorelin in the morning when standing and were bred by AI 4 hours later and again at 24+/−2 hours later. Treatment 2 sows received a 50 mcg dose of deslorelin in SAIB at 96 or 120 hours post-weaning and were bred with a single insemination 28+/−2 hours later with no regard to estrus detection. […]

In test [3] the test system is postpartum sows. As to the kind of experiment: Timed deslorelin injection 96 hours post-weaning and single timed insemination without estrus detection (Example 3). How it is done: Approximately 170 postpartum sows were randomly divided into two equal groups comprised of controls and treated. Following weaning, the controls were detected for estrus and bred following the normal standard operating procedures for the farms on which they resided. The treated sows received a 50 mcg dose of deslorelin in SAIB at 96 hours post-weaning and were bred with a single insemination 28+/−2 hours later with no regard to estrus detection. The sows were examined for pregnancy by ultrasound at 21 days and slaughtered around 28 days post breeding. The entire reproductive tract was removed and corpora lutea and embryos were counted.

Test [4] deals with postpartum sows. The test can be described thus: Litter size after deslorelin treatment in postpartum sows at three farm sites (Example 4). Conditions: Tables 3 to 5, regardless of estrus detection. An excerpt: Postpartum sows were randomly distributed into three different groups comprised of Controls, Treatment 1, and Treatment 2, with the exception of Site 3, which was divided into two groups, Control and Treatment 2. Control sows were detected for estrus following weaning, and bred following the normal standard operating procedures for the farms on which they resided. Treatment 1 sows were detected for estrus following weaning, and received a 50 mcg dose of deslorelin in the morning when standing and were bred by AI 4 hours later and again at 24+/−2 hours later. Treatment 2 sows received a 50 mcg dose of deslorelin in SAIB at 96 or 120 hours post-weaning and were bred with a single insemination 28+/−2 hours later with no regard to estrus detection.

The mark [5] stands for this setting: 50 μg deslorelin acetate intravulvar at first estrus detection, AI, AI again if in estrus next day.

For `CCNC(=O)[C@@H]1CCCN1C(=O)[C@H](CCCN=C(N)N)NC(=O)[C@H](CC(C)C)NC(=O)[C@@H](Cc1c[nH]c2ccccc12)NC(=O)[C@H](Cc1ccc(O)cc1)NC(=O)[C@H](CO)NC(=O)[C@H](Cc1c[nH]c2ccccc12)NC(=O)[C@H](Cc1cnc[nH]1)NC(=O)[C@@H]1CCC(=O)N1` [Deslorelin, deslorelin], the “Time of LH return to base level” value in test [1] is at most 18 h. Also, the “LH peak relative to normal value” in test [1] (normal value from Hansel et al. 1973) is “about twice normal value”. Also, in the test with mature postpartum sows (setting [5]), the “Length of Estrus” value worked out at 40.81 h. For the same molecule, the “Pregnancy Rate” value was found to be 91% in the test with mature postpartum sows (setting [5]) and 71% in the test on postpartum sows [3] (50 mcg in SAIB 96 hours post-weaning, single insemination 28+/-2 hours later, no estrus detection). Besides, the “Pregnancy rates, Control versus Treated” value in the test on mature postpartum sows (50 μg intravulvar at first estrus detection) was “no significant difference”. Further, the “Pregnancy rates” value in the test on postpartum sows [2] is given as “normal pregnancy rates were obtained”; in the test on postpartum sows [3] (single timed injection post-weaning, single timed insemination, no estrus detection), “normal pregnancy rates were attained”. Also, the “Sows Pregnant” value with postpartum sows [3] (50 mcg in SAIB 96 hours post-weaning, single insemination 28+/-2 hours later, 84 sows in group, ultrasound at 21 days) amounted to 60. In the test on postpartum sows [3] (50 mcg in SAIB 96 hours post-weaning, slaughter around 28 days post breeding), the “Embryo Survival” value came to 64%. Moreover, the “Litter sizes” value in the test with postpartum sows [4] is listed as “normal litter sizes”.
